Reference: patent US20260273028A1, “PEROXIDASE COMPOSITIONS CONTAINING IMPROVED ENHANCING AGENTS” (FLEN HEALTH PHARMA NV, priority 2022, published 2026)

What was measured:
[1] = test system: Aspergillus niger ATCC®16404™; assay: MBC determination, broth microdilution with CFU enumeration; type: cell-based; details: A. niger
Experimental: (§1) The minimal bactericidal concentration (MBC) is defined as the lowest concentration of an antimicrobial agent that results in a complete killing of the microbial population (determined via standard CFU enumeration techniques) after overnight incubation. This endpoint measurement is used, together with the MIC (see above), to define the microbial susceptibility towards an antimicrobial agent. Here, the antimicrobial agent is a combination of the natural enzymes GOX+LPO.
(§2) To determine the MBC of the described combinations, a classical broth microdilution assay combined with standard CFU enumeration techniques was used to determine the susceptibility of a series of microbes commonly detected in infected wounds, including (a) the Gram-positive bacterium Staphylococcus aureus ATCC® 6538™ (results shown below), (b) the Gram-negative bacterium Pseudomonas aeruginosa ATCC®9027™ (results shown below), (c) the yeast Candida albicans ATCC®10231™ (results shown below), and (d) the fungus Aspergillus niger ATCC®16404™ (results shown below). In brief, the broth microdilution assay was set up as previously described (see 2.1). After incubation, the MBC was determined by investigating the presence of viable microorganisms at the MIC and following higher concentrations (MICx2, MICx4, and so on) using standard CFU enumeration techniques. For each combination evaluated, this test was repeated at least 5 times. The collected data were further analyzed in MS Excel. Mean concentration data (expressed as log CFU/ml) were visualized in a table format in which the MBC was highlighted.

[2] = test system: Pseudomonas aeruginosa ATCC®9027™; assay: as above; type: cell-based; details: P. aeruginosa
Experimental: as §1, §2

[3] = exemplary values; cited from earlier work
[4] = test system: S. aureus (ATCC®6538™); assay: Microbial challenge testing in alginogel with GOX+LPO; type: cell-based; details: for reduction in absolute S. aureus counts compared to guaiacol in the same concentration: alginogel with GOX+LPO, enhancer 0.0005%; for antimicrobial activity of enhancing candidate only against S. aureus: alginogel without enzymes, highest concentration tested; for reduction in absolute S. aureus counts compared to reference (enzymes only): alginogel, 0.0075% GOX+LPO
Experimental: To determine the ability of an antimicrobial agent to elicit an antimicrobial preserving efficacy in a gel environment, a microbiological challenge test can be performed. Here, the antimicrobial agent is a combination of the natural enzymes GOX+LPO. […] Microbial challenge testing was performed according to the method described in the European Pharmacopoeia current version chapter 5.1.3 ‘Efficacy of antimicrobial preservation’, but with adapted time points (0, 10, 20, 30, 40, 50, 60, 70 and 80 min instead of 0, 2, 7, 14 and 28 days). In brief, for every enhancing agent to be evaluated, a lab-scale alginogel (based on the Flaminal® formulation, but without the original enhancer guaiacol) including 0.0075% GOX+LPO (1:1) was prepared according to standard practices. Enhancing agents were added to the alginogel in a final concentration ranging from 0.01 to 0,00025% (v/w). As a reference, an alginogel including 0.0075% GOX+LPO (1:1) without the addition of any enhancing agent was included (designated as: enzymes only). As a control, an alginogel without both GOX+LPO (1:1) enzyme solution and enhancing agent (designated as: empty gel) as well as an alginogel only containing the enhancing agent only (designated as: enhancing candidate only) were included. After preparation, a homogenous sample of 10 g was transferred into a 50 ml conical tube for each alginogel to be evaluated and microorganism to be tested. For each test microorganism, including S. aureus (ATCC®6538™), P. aeruginosa (ATCC®9027™), C. albicans (ATCC®10231™) and A. niger (ATCC®16404 ™), a microbial suspension of about 10^8 CFU/ml was prepared in sterile diluent (buffered sodium chloride-peptone solution). Then, the 50 ml conical tubes containing the alginogel samples to be evaluated were inoculated with 100 μl of the designated inoculum. At the start (time point 0) and after 0, 10, 20, 30, 40, 50, 60, 70 and 80 min, the number of viable microorganisms per gram product (expressed as CFU/g) was determined by transferring a sample of 0.5 g of the product into a 15 ml conical tube containing 4.5 ml of sterile diluent and applying general dilution and plate count techniques. For each combination evaluated, this test was repeated at least 1-3 times. The collected data were further analyzed in MS Excel. Mean absolute counts (expressed as log CFU/g) were visualized in a graph.
The purpose of the hereby described experiment was to compare the efficacy of antimicrobial activity enhancement of the GOX+LPO (1:1) enzyme combination by ethanolamine and proline in a microbial challenge test using S. aureus. The test was set up as described in the section on ‘challenge testing’ in Example 2.4. The test was repeated at least 3 times.
The purpose of the hereby described experiment was to compare the efficacy of antimicrobial activity of the GOX+LPO (1:1) enzyme combination in the presence of potassium chloride/potassium bromide and potassium iodide. A microbial challenge test using S. aureus was performed. The test was set up as described in the section on ‘challenge testing’ in Example 2.4.

Structure (SMILES)	MBC: GOX+LPO enzyme solution needed ([1]; enhancer 1%-0.01%)	increase in MBC compared to reference ([1]; enhancer 1%-0.01%) [×]	MBC: GOX+LPO enzyme solution needed ([2]; enhancer 0.0025-0.00125%)	increase in MBC compared to reference or guaiacol solution ([2]; enhancer 0.0025-0.00125%) [×]	MBC: GOX+LPO enzyme solution needed ([2]; enhancer 0.01-0.005%)	increase in MBC compared to reference or guaiacol solution ([2]; enhancer 0.01-0.005%) [×]	LogP (octanol/water partition coefficient) [3]	reduction in absolute S. aureus counts compared to guaiacol in the same concentration [4]	antimicrobial activity of enhancing candidate only against S. aureus [4]	reduction in absolute S. aureus counts compared to reference (enzymes only) ([4]; enhancer 0.00125-0.0005%)	reduction in absolute S. aureus counts compared to reference (enzymes only) ([4]; enhancer 0.0025%)	MBC: GOX+LPO enzyme solution needed ([2]; enhancer 0,1%)	increase in MBC compared to reference ([2]; enhancer 0,1%) [×]	MBC: GOX+LPO enzyme solution needed ([2]; enhancer 1%)	increase in MBC compared to reference ([2]; enhancer 1%) [×]	also measured
O=C(O)[C@@H]1CCCN1 [Proline, proline]	0.000156 % (v/v)	2	0.000625 % (v/v)	2	0.000625 % (v/v)	2	LogP = −2.54	faster complete reduction	no antimicrobial activity	faster complete reduction	immediate entire reduction					exposure time to complete reduction of absolute S. aureus counts (average) ([4]; alginogel with GOX+LPO (1:1), enhancer 0,0005% (v/v)): 60 min
CC[C@H](C)[C@H](N)C(=O)O [Isoleucine, isoleucine]							LogP = −1.72	faster complete reduction	no antimicrobial activity	faster complete reduction	immediate entire reduction	0.000625 % (v/v)	2	0.000156 % (v/v)	8	MBC: GOX+LPO enzyme solution needed ([1]; enhancer 1%-0.005%): 0.000156 % (v/v); increase in MIC compared to reference (MBC section) ([1]; enhancer 1%-0.005%): 2 ×
C[C@@H](O)[C@H](N)C(=O)O [Threonine, threonine]	0.000156 % (v/v)	2					LogP = −2.94	faster complete reduction	no antimicrobial activity	faster complete reduction	immediate entire reduction	0.000625 % (v/v)	2	0.000156 % (v/v)	8	
N[C@@H](CO)C(=O)O [Serine, serine]	0.000156 % (v/v)	2	0.000625 % (v/v)	2	0.000625 % (v/v)	2	LogP = −3.07	faster complete reduction	no antimicrobial activity	faster complete reduction	immediate entire reduction					
NC(=O)CC[C@H](N)C(=O)O [Glutamine, glutamine]	0.000156 % (v/v)	2					LogP = −3.15	faster complete reduction	no antimicrobial activity	faster complete reduction	immediate entire reduction	0.000625 % (v/v)	2	0.000156 % (v/v)	8	
NC(=O)C[C@H](N)C(=O)O [Asparagine, asparagine]							LogP = −3.82		no antimicrobial activity		immediate entire reduction	0.000625 % (v/v)	2	0.000156 % (v/v)	8	MBC: GOX+LPO enzyme solution needed ([1]; enhancer 1%-0.05%): 0.000156 % (v/v); increase in MBC compared to reference ([1]; enhancer 1%-0.05%): 2 ×; reduction in absolute S. aureus counts compared to reference (enzymes only) ([4]; enhancer 0,00125%): faster complete reduction
